Test results reported in publication PMC11465068 (Journal of Lipid Research, 2024).

Target: T1, rhSphK1 (recombinant human sphingosine kinase 1) (Homo sapiens, UniProt Q9NYA1)
T1 construct: gene SPHK1; commercial recombinant human enzyme from two manufacturers
Assay: S1P formation by LC-MS/MS
Assay type: biochemical
Settings: […] sphingosine, […] ATP, […] MgCl2, […] °C, […] h; range over two enzyme sources

T1 sequence (Q9NYA1 whole entry): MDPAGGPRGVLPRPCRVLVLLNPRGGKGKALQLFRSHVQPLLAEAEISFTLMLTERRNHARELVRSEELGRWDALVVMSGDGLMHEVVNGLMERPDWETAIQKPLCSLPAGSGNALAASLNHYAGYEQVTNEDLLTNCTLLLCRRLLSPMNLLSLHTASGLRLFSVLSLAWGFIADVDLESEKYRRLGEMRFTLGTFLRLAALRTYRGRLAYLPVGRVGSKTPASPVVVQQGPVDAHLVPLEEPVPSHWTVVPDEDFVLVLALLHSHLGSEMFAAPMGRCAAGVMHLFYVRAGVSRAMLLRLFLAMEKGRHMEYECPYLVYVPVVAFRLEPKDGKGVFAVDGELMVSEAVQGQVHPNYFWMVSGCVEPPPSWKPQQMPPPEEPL

## O=C(NCc1ccncc1)C12CC3CC(C1)CC(c1ccc(Cl)cc1)(C3)C2 [ABC294640]
  % reduction of S1P formation at 50 μM: 32-34%
